Results taken from patent US20240099343A1, “USE OF GINGERDIOL COMPOUNDS TO ENHANCE FLAVOR” (Firmenich SA, priority 2021, published 2024).

Key:
[1] = Sensory testing with salt reduction, meat flavoring formulation, panel of three expert tasters; assay type: in vivo; settings: 20% reduced salt (0.646%) with 1 ppm compound, scale from 1 to 10
Experimental: Further sensory testing was carried out using a panel of three (3) expert tasters, who rated the taste of a meat flavoring formulation with: (a) a normal amount of salt ([…]); (b) 20% reduced salt (0.646%); and (c) 20% reduced salt (0.646%) with 1 ppm [6]-gingerdiol-diacetate. The panelists rated the soups for salt intensity, umami intensity, bitter intensity, and overall liking on a scale from 1 to 10.

[2] = Sensory testing with salt reduction, mushroom-based cream soup, panel of four expert tasters; assay type: in vivo; settings: 20% reduced salt (0.684%) with 1 ppm compound, scale from 1 to 10
Experimental: Sensory testing was carried out using a panel of four (4) expert tasters, who rated the taste of the a mushroom-based cream soup with: (a) a normal amount of salt (0.855%); (b) 20% reduced salt (0.684%); and (c) 20% reduced salt (0.684%) with 1 ppm [6]-gingerdiol-diacetate. The panelists rated the soups for salt intensity, umami intensity, bitter intensity, and overall liking on a scale from 1 to 10.

## CCCCCC(CC(CCc1ccc(O)c(OC)c1)OC(C)=O)OC(C)=O (centres unmarked) [Gingerdiol, [6]-gingerdiol-diacetate]
[1]
  Bitter (bitter intensity): 2.3
  Overall Liking: 5.0
  Saltiness (salt intensity): 5.3
  Umami (umami intensity): 4.0
[2]
  Bitter (bitter intensity): 0.0
  Overall Liking: 2.3
  Saltiness (salt intensity): 3.3
  Umami (umami intensity): 3.0
